Data taken from ChEMBL document CHEMBL1125940 (Bioorg Med Chem Lett, 1991).
Positions of bridges follow the written chain, without caps; N, C: chain ends. Non-standard residues stand in square brackets, D forms with d. Residues, ends and D or L forms follow the SMILES beside them. Nle = CCCC[C@H](N)C(=O)O

What was measured:
Endothelin-1 receptor [1] = molecular target: T1, Endothelin-1 receptor (Rattus norvegicus, UniProt P26684); assay: Binding affinity towards Endothelin A receptor in A10 rat thoracic aorta smooth muscle cells using [125I]ET1 as radioligand (Exp 2)
T1 sequence (P26684 whole entry): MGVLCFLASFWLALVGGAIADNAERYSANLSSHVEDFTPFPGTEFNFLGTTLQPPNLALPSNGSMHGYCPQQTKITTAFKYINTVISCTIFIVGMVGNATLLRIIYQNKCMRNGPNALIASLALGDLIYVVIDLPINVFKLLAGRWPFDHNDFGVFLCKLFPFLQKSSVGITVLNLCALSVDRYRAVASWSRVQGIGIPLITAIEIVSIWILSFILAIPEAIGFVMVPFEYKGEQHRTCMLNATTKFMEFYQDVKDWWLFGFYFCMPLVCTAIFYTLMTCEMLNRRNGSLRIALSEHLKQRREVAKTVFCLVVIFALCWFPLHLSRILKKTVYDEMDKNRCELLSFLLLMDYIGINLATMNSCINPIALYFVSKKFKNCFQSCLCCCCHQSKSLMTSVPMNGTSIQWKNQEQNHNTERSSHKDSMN

Endothelin-1 receptor [2] = molecular target: T1, Endothelin-1 receptor; assay: Binding affinity towards Endothelin A receptor in A10 rat thoracic aorta smooth muscle cells using [125I]ET1 as radioligand (Exp 1)
Oryctolagus cuniculus = species on record: Oryctolagus cuniculus; assay: Effective concentration required for stimulation of vascular contraction tested in vitro using carotid arteries of New Zealand white rabbits; assay type: functional
Endothelin-1 receptor [3] = molecular target: T1, Endothelin-1 receptor; assay: Binding affinity towards Endothelin A receptor in A10 rat thoracic aorta smooth muscle cells using [125I]ET1 as radioligand

Row | SMILES | Kd (Endothelin-1 receptor [1]) [nM] | Kd (Endothelin-1 receptor [2]) [nM] | EC50 (Oryctolagus cuniculus) [nM] | Kd (Endothelin-1 receptor [3]) [nM]
1 | CC[C@H](C)[C@H](NC(=O)[C@H](CC(=O)O)NC(=O)[C@H](CC(C)C)NC(=O)[C@H](Cc1cnc[nH]1)NC(=O)[C@@H]1CSSC[C@H](N)C(=O)N[C@@H](C)C(=O)N[C@H]2CSSC[C@H](NC(=O)[C@H](CCC(=O)O)NC(=O)[C@H](CCCCN)NC(=O)[C@H](CC(=O)O)NC(=O)[C@H](CCSC)NC(=O)[C@H](CC(C)C)NC(=O)[C@H](CO)NC(=O)[C@H](CO)NC2=O)C(=O)N[C@@H](C(C)C)C(=O)N[C@@H](Cc2ccc(O)cc2)C(=O)N[C@@H](Cc2ccccc2)C(=O)N1)C(=O)N[C@H](C(=O)N[C@@H](Cc1c[nH]c2ccccc12)C(=O)O)[C@@H](C)CC (H-CACSSLMDKECVYFCHLDIIW-OH; disulfide 1-15, 3-11) | 409 | 9.6 | – | –
2 | CCCC[C@@H]1NC(=O)[C@H](CC(C)C)NC(=O)[C@H](CO)NC(=O)[C@H](CO)NC(=O)[C@H](C)NC(=O)[C@H](CO)NC(=O)[C@@H](N)CSSC[C@@H](C(=O)N[C@@H](Cc2cnc[nH]2)C(=O)N[C@@H](CC(C)C)C(=O)N[C@@H](CC(=O)O)C(=O)N[C@H](C(=O)N[C@H](C(=O)N[C@@H](Cc2c[nH]c3ccccc23)C(=O)O)[C@@H](C)CC)[C@@H](C)CC)NC(=O)[C@H](Cc2ccccc2)NC(=O)[C@H](Cc2ccc(O)cc2)NC(=O)[C@H](C(C)C)NC(=O)[C@H](C)NC(=O)[C@H](CCC(=O)O)NC(=O)[C@H](CCCCN)NC(=O)[C@H](CC(=O)O)NC1=O (H-CSASSL[Nle]DKEAVYFCHLDIIW-OH; disulfide 1-15) | 16.6 | 0.35 | – | –
3 | CC[C@H](C)[C@H](NC(=O)[C@H](CC(=O)O)NC(=O)[C@H](CC(C)C)NC(=O)[C@H](Cc1c[nH]cn1)NC(=O)[C@@H]1CSSC[C@H](N)C(=O)N[C@@H](CO)C(=O)N[C@H]2CSSC[C@H](NC(=O)[C@H](CCC(=O)O)NC(=O)[C@H](CCCCN)NC(=O)[C@H](CC(=O)O)NC(=O)[C@H](C)NC(=O)[C@H](C)NC(=O)[C@H](C)NC(=O)[C@H](C)NC2=O)C(=O)N[C@@H](C(C)C)C(=O)N[C@@H](Cc2ccc(O)cc2)C(=O)N[C@@H](Cc2ccccc2)C(=O)N1)C(=O)N[C@H](C(=O)N[C@@H](Cc1c[nH]c2ccccc12)C(=O)O)[C@@H](C)CC (H-CSCAAAADKECVYFCHLDIIW-OH; disulfide 1-15, 3-11) | – | – | 36 | –
4 | CC[C@H](C)[C@H](NC(=O)[C@H](CC(=O)O)NC(=O)[C@H](CC(C)C)NC(=O)[C@H](Cc1c[nH]cn1)NC(=O)[C@@H]1CSSC[C@H](N)C(=O)N[C@@H](CO)C(=O)N[C@H]2CSSC[C@H](NC(=O)[C@H](CCC(=O)O)NC(=O)[C@H](CCCCN)NC(=O)[C@H](CC(=O)O)NC(=O)[C@H](CCSC)NC(=O)[C@H](CC(C)C)NC(=O)[C@H](CO)NC(=O)[C@H](CO)NC2=O)C(=O)N[C@@H](C)C(=O)N[C@@H](Cc2ccc(O)cc2)C(=O)N[C@@H](Cc2ccccc2)C(=O)N1)C(=O)N[C@H](C(=O)N[C@@H](Cc1c[nH]c2ccccc12)C(=O)O)[C@@H](C)CC (H-CSCSSLMDKECAYFCHLDIIW-OH; disulfide 1-15, 3-11) | – | – | 130 | –
5 | CC[C@H](C)[C@H](NC(=O)[C@H](CC(=O)O)NC(=O)[C@H](CC(C)C)NC(=O)[C@H](Cc1cnc[nH]1)NC(=O)[C@@H]1CSSC[C@H](N)C(=O)N[C@@H](CO)C(=O)N[C@H]2CSSC[C@H](NC(=O)[C@H](CCC(=O)O)NC(=O)[C@H](CCCCN)NC(=O)[C@H](CC(=O)O)NC(=O)[C@H](CCSC)NC(=O)[C@H](CC(C)C)NC(=O)[C@H](CO)NC(=O)[C@H](CO)NC2=O)C(=O)N[C@@H](C)C(=O)N[C@@H](Cc2ccc(O)cc2)C(=O)N[C@@H](Cc2ccccc2)C(=O)N1)C(=O)N[C@H](C(=O)N[C@@H](Cc1c[nH]c2ccccc12)C(=O)O)[C@@H](C)CC (H-CSCSSLMDKECAYFCHLDIIW-OH; disulfide 1-15, 3-11) | 1390 | 31 | – | –
6 | CC[C@H](C)[C@H](NC(=O)[C@H](CC(=O)O)NC(=O)[C@H](CC(C)C)NC(=O)[C@H](C)NC(=O)[C@@H]1CSSC[C@H](N)C(=O)N[C@@H](CO)C(=O)N[C@H]2CSSC[C@H](NC(=O)[C@H](CCC(=O)O)NC(=O)[C@H](CCCCN)NC(=O)[C@H](CC(=O)O)NC(=O)[C@H](CCSC)NC(=O)[C@H](CC(C)C)NC(=O)[C@H](CO)NC(=O)[C@H](CO)NC2=O)C(=O)N[C@@H](C(C)C)C(=O)N[C@@H](Cc2ccc(O)cc2)C(=O)N[C@@H](Cc2ccccc2)C(=O)N1)C(=O)N[C@H](C(=O)N[C@@H](Cc1c[nH]c2ccccc12)C(=O)O)[C@@H](C)CC (H-CSCSSLMDKECVYFCALDIIW-OH; disulfide 1-15, 3-11) | – | – | 31 | 51.9
7 | CC[C@H](C)[C@H](NC(=O)[C@H](CC(=O)O)NC(=O)[C@H](C)NC(=O)[C@H](Cc1c[nH]cn1)NC(=O)[C@@H]1CSSC[C@H](N)C(=O)N[C@@H](CO)C(=O)N[C@H]2CSSC[C@H](NC(=O)[C@H](CCC(=O)O)NC(=O)[C@H](CCCCN)NC(=O)[C@H](CC(=O)O)NC(=O)[C@H](CCSC)NC(=O)[C@H](CC(C)C)NC(=O)[C@H](CO)NC(=O)[C@H](CO)NC2=O)C(=O)N[C@@H](C(C)C)C(=O)N[C@@H](Cc2ccc(O)cc2)C(=O)N[C@@H](Cc2ccccc2)C(=O)N1)C(=O)N[C@H](C(=O)N[C@@H](Cc1c[nH]c2ccccc12)C(=O)O)[C@@H](C)CC (H-CSCSSLMDKECVYFCHADIIW-OH; disulfide 1-15, 3-11) | 1910 | 6.6 | – | –
8 | CC[C@H](C)[C@H](NC(=O)[C@H](C)NC(=O)[C@H](CC(C)C)NC(=O)[C@H](Cc1cnc[nH]1)NC(=O)[C@@H]1CSSC[C@H](N)C(=O)N[C@@H](CO)C(=O)N[C@H]2CSSC[C@H](NC(=O)[C@H](CCC(=O)O)NC(=O)[C@H](CCCCN)NC(=O)[C@H](CC(=O)O)NC(=O)[C@H](CCSC)NC(=O)[C@H](CC(C)C)NC(=O)[C@H](CO)NC(=O)[C@H](CO)NC2=O)C(=O)N[C@@H](C(C)C)C(=O)N[C@@H](Cc2ccc(O)cc2)C(=O)N[C@@H](Cc2ccccc2)C(=O)N1)C(=O)N[C@H](C(=O)N[C@@H](Cc1c[nH]c2ccccc12)C(=O)O)[C@@H](C)CC (H-CSCSSLMDKECVYFCHLAIIW-OH; disulfide 1-15, 3-11) | 80 | 0.7 | – | –
9 | CC[C@H](C)[C@H](NC(=O)[C@H](C)NC(=O)[C@H](CC(=O)O)NC(=O)[C@H](CC(C)C)NC(=O)[C@H](Cc1cnc[nH]1)NC(=O)[C@@H]1CSSC[C@H](N)C(=O)N[C@@H](CO)C(=O)N[C@H]2CSSC[C@H](NC(=O)[C@H](CCC(=O)O)NC(=O)[C@H](CCCCN)NC(=O)[C@H](CC(=O)O)NC(=O)[C@H](CCSC)NC(=O)[C@H](CC(C)C)NC(=O)[C@H](CO)NC(=O)[C@H](CO)NC2=O)C(=O)N[C@@H](C(C)C)C(=O)N[C@@H](Cc2ccc(O)cc2)C(=O)N[C@@H](Cc2ccccc2)C(=O)N1)C(=O)N[C@@H](Cc1c[nH]c2ccccc12)C(=O)O (H-CSCSSLMDKECVYFCHLDAIW-OH; disulfide 1-15, 3-11) | 3120 | 96 | – | –
10 | CC[C@H](C)[C@H](NC(=O)[C@H](C)NC(=O)[C@H](CC(=O)O)NC(=O)[C@H](CC(C)C)NC(=O)[C@H](Cc1c[nH]cn1)NC(=O)[C@@H]1CSSC[C@H](N)C(=O)N[C@@H](CO)C(=O)N[C@H]2CSSC[C@H](NC(=O)[C@H](CCC(=O)O)NC(=O)[C@H](CCCCN)NC(=O)[C@H](CC(=O)O)NC(=O)[C@H](CCSC)NC(=O)[C@H](CC(C)C)NC(=O)[C@H](CO)NC(=O)[C@H](CO)NC2=O)C(=O)N[C@@H](C(C)C)C(=O)N[C@@H](Cc2ccc(O)cc2)C(=O)N[C@@H](Cc2ccccc2)C(=O)N1)C(=O)N[C@@H](Cc1c[nH]c2ccccc12)C(=O)O (H-CSCSSLMDKECVYFCHLDAIW-OH; disulfide 1-15, 3-11) | – | – | 182 | –
11 | CC[C@H](C)[C@H](NC(=O)[C@H](CC(=O)O)NC(=O)[C@H](CC(C)C)NC(=O)[C@H](Cc1c[nH]cn1)NC(=O)[C@@H]1CSSC[C@H](N)C(=O)N[C@@H](CO)C(=O)N[C@H]2CSSC[C@H](NC(=O)[C@H](CCC(=O)O)NC(=O)[C@H](CCCCN)NC(=O)[C@H](CC(=O)O)NC(=O)[C@H](CCSC)NC(=O)[C@H](CC(C)C)NC(=O)[C@H](CO)NC(=O)[C@H](CO)NC2=O)C(=O)N[C@@H](C(C)C)C(=O)N[C@@H](Cc2ccc(O)cc2)C(=O)N[C@@H](Cc2ccccc2)C(=O)N1)C(=O)N[C@H](C(=O)N[C@@H](Cc1c[nH]c2ccccc12)C(=O)O)[C@@H](C)CC [ENDOTHELIN] | – | – | 0.94 | –
